As a reminder, the IC50 is the concentration that inhibits the measured activity by half.

Experiment [1] has as its system MCP-1 induced chemotaxis of THP-1 cells. Kind of experiment: MCP-1 Induced Chemotaxis in THP-1 Cells. The following applies: Homo sapiens, MCP-1 0.01 μg/mL, 3 hours at 37° C., read-out: Inhibition of MCP-1 Induced Chemotaxis IC50. The format is cell-based. Here is the method: MCP-1 induced chemotaxis was run in a 24-well chemotaxis chamber. MCP-1 (0.01 μg/mL) was added to the lower chamber and 100 μL of THP-1 cells (1×10^7 cell/mL) was added to the top chamber. Varying concentrations of test compound were added to the top and bottom chambers. Cells were allowed to chemotax for 3 hours at 37° C. and 5% CO2. An aliquot of the cells that had migrated to the bottom chamber was taken and counted then compared to vehicle.
Table 3 lists IC50 values for inhibition of MCP-1 induced chemotaxis.

The target of a further experiment is T1, CCR2 (Homo sapiens, UniProt P41597).
T1 construct: host or cells: THP-1 cells
T1 sequence (P41597 1-360 isoform P41597-2): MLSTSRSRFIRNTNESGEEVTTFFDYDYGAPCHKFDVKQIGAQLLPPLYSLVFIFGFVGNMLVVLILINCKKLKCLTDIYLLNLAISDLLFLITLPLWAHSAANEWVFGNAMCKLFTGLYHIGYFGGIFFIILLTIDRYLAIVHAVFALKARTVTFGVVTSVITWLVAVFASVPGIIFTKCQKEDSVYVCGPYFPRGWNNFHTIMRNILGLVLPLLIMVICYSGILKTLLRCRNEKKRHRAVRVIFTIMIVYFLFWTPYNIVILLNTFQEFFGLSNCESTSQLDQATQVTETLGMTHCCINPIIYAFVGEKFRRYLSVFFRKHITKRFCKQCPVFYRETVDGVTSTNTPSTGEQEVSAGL
Kind of experiment: MCP-1 Receptor Binding Assay in THP-1 Cells. The settings on record: THP-1 cells, 0.5 nM 125I labeled MCP-1, 2 hours at 30° C.; read-out: Inhibition of MCP-1 Binding IC50. The method, boiled down:
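Whole THP-1 cells incubated 2 h at 30° C with 0.5 nM 125I-MCP-1 and varying compound concentrations; bound radioactivity harvested on filters and counted by scintillation. Nonspecific binding with 1 μM cold MCP-1; IC50 for inhibition of binding versus vehicle.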

Experiment [2] relates to MCP-1 induced calcium ion influx in THP-1 cells. The experiment is described as follows: MCP-1 Induced Calcium Mobilization in THP-1 Cells. The format is cell-based. The settings on record: Homo sapiens, THP-1, THP-1 cells, 0.2 μM MCP-1, FLIPR; read-out: Inhibition of MCP-1 Induced Calcium Ion Influx IC50. The method, boiled down: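 Fluo-3-loaded (5 μM, 45 min) THP-1 cells preincubated 15 min with compound. Calcium change after 0.2 μM MCP-1 addition read by FLIPR relative to vehicle; IC50 values derived.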
(In general: Calcium flux is commonly read through the fluorescence of an indicator in the cells.)

`N=C(NC(=O)c1cc(F)cc(F)c1)N1CCC(C(O)CN2CCC(c3c[nH]c4ccccc34)CC2)CC1` (stereo not drawn) [Compound 10, 3,5-difluoro-N-[(4-{1-hydroxy-2-[4-(1H-indol-3-yl)-piperidin-1-yl]-ethyl}-piperidin-1-yl)-imino-methyl]-benzamide]: the results for the IC50 (in experiment [1]; at CCR2; in experiment [2]) were 270 nM, 150 nM and 400 nM, respectively.
Regarding `Cc1cccc(/C=C/C(=O)N2CCC(C(O)CN3CCC(c4c[nH]c5ccccc45)CC3)CC2)c1` (stereo not drawn) [Compound 11], the IC50 in experiment [1] turned out to be 190 nM; on CCR2, 10 nM; in experiment [2], 350 nM.
In the case of `COc1ccc(C2CCN(CC(O)C3CCN(C(=O)/C=C/c4cc(F)cc(F)c4)CC3)CC2)cc1` (stereo not drawn) [Compound 12], the half-inhibitory concentration (IC50) in experiment [1] amounted to 7 nM; at CCR2, 20 nM; in experiment [2], 650 nM.
Turning to `COc1ccc(C2CCN(CC(O)C3CCN(C(=O)/C=C/c4cc(F)c(F)c(F)c4)CC3)CC2)cc1` (stereo not drawn) [Compound 13], the IC50 was determined as 60 nM in experiment [1], 10 nM on CCR2 and 240 nM in experiment [2].
Regarding `COc1ccc(C2CCN(CC(O)C3CCN(C(=O)/C=C/c4ccc(Cl)c(Cl)c4)CC3)CC2)cc1` (stereo not drawn) [Compound 14], the IC50 in experiment [1] was determined as 150 nM; at CCR2, 140 nM; in experiment [2], 3 nM.
Regarding `COc1ccc(C2CCN(CC(O)C3CCN(C(=O)Nc4ccc(Cl)c(Cl)c4)CC3)CC2)cc1` (stereo not drawn) [Compound 15, 4-{1-hydroxy-2-[4-(4-methoxy-phenyl)-piperidin-1-yl]-ethyl}-piperidine-1-carboxylic acid (3,4-dichloro-phenyl)-amide], the IC50 amounted to 20 nM in experiment [1], 30 nM at CCR2 and 110 nM in experiment [2].
The corresponding values for `COc1ccc(C2CCN(CC(O)C3CCN(C(=S)Nc4cccc(Br)c4)CC3)CC2)cc1` (stereo not drawn) [Compound 16, 4-{1-hydroxy-2-[4-(4-methoxy-phenyl)-piperidin-1-yl]-ethyl}-piperidine-1-carbothioic acid (3-bromo-phenyl)-amide] are 300 nM, 130 nM and 980 nM.
For `CS(=O)(=O)Nc1ccc2[nH]cc(C3CCN(CC(=O)C4CCN(C(=O)C=Cc5cc(F)c(F)c(F)c5)CC4)CC3)c2c1` [Compound 18, N-{3-[1-(2-oxo-2-{1-[3-(3,4,5-trifluoro-phenyl)-acryloyl]-piperidin-4-yl}-ethyl)-piperidin-4-yl]-1H-indol-5-yl}-methanesulfonamide], the results for the IC50 (in experiment [1]; at CCR2; in experiment [2]) were 420 nM, 680 nM and 1700 nM, respectively.
In the case of `Cc1cccc(/C=C/C(=O)N2CCC(C(O)CN3CCC(c4c[nH]c5ncccc45)CC3)CC2)c1` (stereo not drawn) [Compound 19], the half-maximal inhibitory concentration (IC50) is 190 nM in experiment [1], 130 nM on CCR2 and 30 nM in experiment [2].
Taken in the same sequence, the figures for `O=C(/C=C/c1cc(F)cc(F)c1)N1CCC(C(O)CN2CCC(c3c[nH]c4ncccc34)CC2)CC1` (stereo not drawn) [Compound 20] were 20 nM, 50 nM and 230 nM.
Take `O=C(/C=C/c1cc(F)c(F)c(F)c1)N1CCC(C(O)CN2CCC(c3c[nH]c4ncccc34)CC2)CC1` (stereo not drawn) [Compound 21]: the figures for the IC50 (in experiment [1]; at CCR2; in experiment [2]) were 20 nM, 50 nM and 480 nM, respectively.
`O=C(/C=C/c1cccc(C(F)(F)F)c1)N1CCC(C(O)CN2CCC(c3c[nH]c4ncccc34)CC2)CC1` (stereo not drawn) [Compound 22]: the IC50 in experiment [1] stood at 360 nM; on CCR2 it was 190 nM; in experiment [2], 30 nM.
`O=C(/C=C/c1ccc(Cl)c(Cl)c1)N1CCC(C(O)CN2CCC(c3c[nH]c4ncccc34)CC2)CC1` (stereo not drawn) [Compound 23]: the IC50 in experiment [1] turned out to be 20 nM; on CCR2, 20 nM; in experiment [2], 7 nM.
On to `O=C(Nc1ccc(Cl)c(Cl)c1)N1CCC(C(O)CN2CCC(c3c[nH]c4ncccc34)CC2)CC1` (stereo not drawn) [Compound 24, 4-{1-hydroxy-2-[4-(1H-pyrrolo[2,3-b]pyridin-3-yl)-piperidin-1-yl]-ethyl}-piperidine-1-carboxylic acid (3,4-dichloro-phenyl)-amide], for which the IC50 in experiment [1] is 70 nM; at CCR2, 70 nM; in experiment [2] it was 120 nM.
Regarding `CSc1ccc(NC(=O)N2CCC(C(O)CN3CCC(c4c[nH]c5ncccc45)CC3)CC2)cc1` (stereo not drawn) [Compound 25, 4-{1-hydroxy-2-[4-(1H-pyrrolo[2,3-b]pyridin-3-yl)-piperidin-1-yl]-ethyl}-piperidine-1-carboxylic acid (4-methylsulfanyl-phenyl)-amide], the IC50 in experiment [1] came to 640 nM; at CCR2, 810 nM; in experiment [2] it was 1500 nM.
Regarding `COc1ccc2[nH]cc(C3CCN(CC(O)C4CCN(C(=O)/C=C/c5cc(F)cc(F)c5)CC4)CC3)c2c1` (stereo not drawn) [Compound 26], the IC50 in experiment [1] came to 20 nM; at CCR2 it was 70 nM; in experiment [2], 370 nM.
Regarding `CS(=O)(=O)Nc1ccc2[nH]cc(C3CCN(CC(O)C4CCN(C(=O)/C=C/c5cc(F)c(F)c(F)c5)CC4)CC3)c2c1` (stereo not drawn) [Compound 27], the IC50 in experiment [1] was found to be 10 nM; at CCR2, 10 nM; in experiment [2], 8 nM.
Consider `CS(=O)(=O)Nc1ccc2[nH]cc(C3CCN(CC(N)C4CCN(C(=O)C=Cc5cc(F)c(F)c(F)c5)CC4)CC3)c2c1` (stereo not drawn) [Compound 28, N-{3-[1-(2-amino-2-{1-[3-(3,4,5-trifluoro-phenyl)-acryloyl]-piperidin-4-yl}-ethyl)-piperidin-4-yl]-1H-indol-5-yl}-methanesulfonamide], for which the IC50 in experiment [1] is 370 nM; at CCR2, 250 nM; in experiment [2], 310 nM.
Regarding `COc1ccc(C2CCN(CC(O)C3CCN(C(=O)/C=C/c4cccc(C)c4)CC3)CC2)cc1` (stereo not drawn) [Compound 29], the IC50 is 70 nM in experiment [1], 70 nM on CCR2 and 90 nM in experiment [2].
For the molecule `COc1ccc(C2CCN(CC(O)C3CCN(C(=O)/C=C/c4cccc(C(F)(F)F)c4)CC3)CC2)cc1` (stereo not drawn) [Compound 30], the IC50 was 60 nM in experiment [1], 50 nM at CCR2 and 220 nM in experiment [2].
The corresponding values for `COc1ccc(C2CCN(CC(O)C3CCN(C(=O)/C=C/c4ccc(F)c(F)c4)CC3)CC2)cc1` (stereo not drawn) [Compound 32] are 100 nM, 70 nM and 80 nM.
The corresponding values for `O=C(/C=C/c1cc(F)cc(F)c1)N1CCC(C(O)CN2CCC(c3cc[nH]n3)CC2)CC1` (stereo not drawn) [Compound 34] are 840 nM, 570 nM and 10900 nM.
As to `Cc1cccc(C=CC(=O)N2CCC(C(O)CN3CCC(c4c[nH]c5ccc(NS(C)(=O)=O)cc45)CC3)CC2)c1` (stereo not drawn) [Compound 40, N-[3-(1-{2-hydroxy-2-[1-(3-m-tolyl-acryloyl)-piperidin-4-yl]-ethyl}-piperidin-4-yl)-1H-indol-5-yl]-methanesulfonamide], the results for the IC50 (in experiment [1]; at CCR2; in experiment [2]) were 30 nM, 80 nM and 170 nM, respectively.
Turning to `CS(=O)(=O)Nc1ccc2[nH]cc(C3CCN(CC(O)C4CCN(C(=O)C=Cc5cc(F)cc(F)c5)CC4)CC3)c2c1` (stereo not drawn) [Compound 41, N-{3-[1-(2-{1-[3-(3,5-difluoro-phenyl)-acryloyl]-piperidin-4-yl}-2-hydroxy-ethyl)-piperidin-4-yl]-1H-indol-5-yl}-methanesulfonamide], the IC50 came out at 20 nM in experiment [1], 40 nM on CCR2 and 90 nM in experiment [2].

(Values after patent publication US20070197590A1, “SUBSTITUTED DIPIPERIDINE CCR2 ANTAGONISTS” (priority 2006, published 2007).)
